This passage reports solubility and Activity results from ChEMBL document CHEMBL1764954, “Activation of the G-protein-coupled receptor 119: a conformation-based hypothesis for understanding agonist response” (J Med Chem, 2011).

The structures appear in SMILES notation. ≈ marks a conversion by molar mass, not a printed value. Calls of active or inactive are those of the source. The rule behind the calls is not given here.

Data set [1] is described as follows: Aqueous solubility of the compound. It counts as physicochemical. To be noted: aqueous medium.
Data set [2] in a line: Solubility of the compound in gastric fluid at pH 1.2. The format is physicochemical. To be noted: simulated gi fluid.
Data set [3] concerns Rattus norvegicus. The data set can be described thus: Increase in GLP1 level in overnight fasted Wistar rats at 5 and 50 mg/kg, po. It counts as functional, organism-based. Further details: dose 50 mg/kg.
Data set [4] relates to Rattus norvegicus. Put plainly: Hypoglycemic activity in overnight fasted Wistar rats assessed as decrease in glucose AUC at 5 and 50 mg/kg, po by oral glucose tolerance test. The format is functional, organism-based. Further details: dose 50 mg/kg.

As usually defined, the solubility is the concentration that dissolves in the medium under given conditions.

Molecule `Cc1ncccc1Oc1ncnc(OC2CCN(C(=O)OC(C)C)CC2)c1C` returned a solubility in data set [1] above 40 mg/mL. `Cc1ncccc1Oc1ncnc(OC2C3COCC2CN(C(=O)OC(C)C)C3)c1C` (stereo in doubt; 8) [listing 1 of 2 here] returned a solubility in data set [2] of 8.6 mg/mL (≈ 20.1 mM). As for `Cc1ncccc1Oc1ncnc(OC2C3COCC2CN(C(=O)OC(C)C)C3)c1C` (stereo in doubt; 8) [listing 2 of 2 here], the result in data set [3] and in data set [4] was Active. As for `Cc1ncccc1Oc1ncnc(OC2C3COCC2CN(C(=O)OC(C)C)C3)c1C` (stereo in doubt; 9), the solubility in data set [2] is above 66 mg/mL.
